Test results published in patent US20230167088A1, “1-PYRAZINYLPYRAZOLYL-3-OXYALKYL ACIDS AND THEIR DERIVATIVES, AND THEIR USE FOR CONTROL OF UNDESIRED PLANT GROWTH” (BAYER AKTIENGESELLSCHAFT, priority 2020, published 2023).

Assays:
[1] = system: LOLRI; assay: Herbicidal post-emergence action 1a (greenhouse pots, visual rating); type: in vivo, Lolium rigidum; details: rated visually about 3 weeks after treatment, 100% = plants have died, 0% = like control plants
Procedure, shortened: (§1)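 Visual scoring versus untreated plants (100% = plants dead, 0% = as control) followed roughly 3 weeks in the greenhouse after treatment. Plants grown in sandy loam pots had been sprayed on green parts at the one-leaf stage, 2–3 weeks post-sowing, with aqueous WP/EC preparations containing 0.5% additive, 600 l/ha, at 320 and/or 80 g/ha.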

[2] = system: VERPE; assay: as above; type: in vivo, Veronica persica; details: visual rating about 3 weeks after treatment
Procedure, shortened: as §1

[3] = system: AMARE; assay: Herbicidal pre-emergence action 2a (greenhouse pots, visual scoring); type: in vivo, Amaranthus retroflexus; details: dosage 320 g/ha, visual scoring after about 3 weeks vs untreated controls
Procedure, shortened: (§2)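 Visual percent rating, ~3 weeks after treatment, untreated pots as reference (0% = control-like, 100% = killed). Application: formulated compound on soil surface over seeds, 320 g/ha and/or 80 g/ha.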

[4] = system: POLCO; assay: as above; type: in vivo, Polygonum convolvulus; details: dosage 320 g/ha, visual scoring after about 3 weeks vs untreated controls
Procedure, shortened: as §2

[5] = system: ALOMY; assay: Herbicidal post-emergence action 1a (greenhouse pots, visual rating); type: in vivo, Alopecurus myosuroides; details: Dosage 320 g/ha; rated visually about 3 weeks after treatment; 100% = plants have died, 0% = like control plants
Procedure, shortened: as §1

[6] = system: SETVI; assay: Herbicidal pre-emergence action 2a (greenhouse pots, visual scoring); type: in vivo, Setaria viridis; details: dosage 320 g/ha, visual scoring after about 3 weeks vs untreated controls
Procedure, shortened: as §2

[7] = system: AVEFA; assay: as above; type: in vivo, Avena fatua; details: dosage 320 g/ha, visual scoring after about 3 weeks
Procedure, shortened: as §2

[8] = system: AMARE; assay: Herbicidal post-emergence action 1a (greenhouse pots, visual rating); type: in vivo, Amaranthus retroflexus; details: visual rating about 3 weeks after treatment
Procedure, shortened: as §1

[9] = system: ECHCG; assay: Herbicidal pre-emergence action 2a (greenhouse pots, visual scoring); type: in vivo, Echinochloa crus-galli; details: dosage 320 g/ha, visual scoring after about 3 weeks
Procedure, shortened: as §2

[10] = system: PHBPU; assay: as above; type: in vivo, Pharbitis purpurea; details: dosage 320 g/ha, visual scoring after about 3 weeks vs untreated controls
Excerpt: (§3) [table] a) Seeds of monocotyledonous and dicotyledonous weed plants and crop plants are placed in plastic or organic plant pots and covered with soil. The compounds of the invention, formulated in the form of wettable powders (WP) or as emulsion concentrates (EC), are then applied onto the surface of the covering soil as aqueous suspension or emulsion with addition of 0.5% additive at a water application rate of 600 1/ha (converted). After the treatment, the pots are placed in a greenhouse and kept under good growth conditions for the trial plants. After about 3 weeks, the effect of the preparations is scored visually in comparison with untreated controls as percentages. For example, 100% activity=the plants have died, 0% activity=like control plants. Tables B1 to B15 below show the effects of selected compounds of the general formula (I) according to Tables 1 and 2 on various harmful plants and an application rate corresponding to 320 g/ha and/or 80 g/ha, which were obtained by the experimental procedure mentioned above.

[11] = system: ABUTH; assay: Herbicidal post-emergence action 1a (greenhouse pots, visual rating); type: in vivo, Abutilon theophrasti; details: visual rating about 3 weeks after treatment
Procedure, shortened: as §1

[12] = system: MATIN; assay: Herbicidal pre-emergence action 2a (greenhouse pots, visual scoring); type: in vivo, Matricaria inodora; details: dosage 320 g/ha, visual scoring after about 3 weeks vs untreated controls
Procedure, shortened: as §2

[13] = system: LOLRI; assay: as above; type: in vivo, Lolium rigidum; details: dosage 320 g/ha, visual scoring after about 3 weeks vs untreated controls
Procedure, shortened: as §2

[14] = system: ABUTH; assay: as above; type: in vivo, Abutilon theophrasti; details: dosage 320 g/ha, visual scoring after about 3 weeks vs untreated controls
Excerpt: as §3

[15] = system: AVEFA; assay: Herbicidal post-emergence action 1a (greenhouse pots, visual rating); type: in vivo, Avena fatua; details: rated visually about 3 weeks after treatment, 100% = plants have died, 0% = like control plants
Procedure, shortened: as §1

[16] = system: ECHCG; assay: as above; type: in vivo, Echinochloa crus-galli; details: rated visually about 3 weeks after treatment, 100% = plants have died, 0% = like control plants
Procedure, shortened: as §1

[17] = system: ALOMY; assay: Herbicidal pre-emergence action 2a (greenhouse pots, visual scoring); type: in vivo, Alopecurus myosuroides; details: dosage 320 g/ha, visual scoring after about 3 weeks
Procedure, shortened: as §2

[18] = system: VERPE; assay: as above; type: in vivo, Veronica persica; details: dosage 320 g/ha, visual scoring after about 3 weeks vs untreated controls
Procedure, shortened: as §2

[19] = system: SETVI; assay: Herbicidal post-emergence action 1a (greenhouse pots, visual rating); type: in vivo, Setaria viridis; details: rated visually about 3 weeks after treatment, 100% = plants have died, 0% = like control plants
Procedure, shortened: as §1

[20] = system: PHBPU; assay: as above; type: in vivo, Pharbitis purpurea; details: visual rating about 3 weeks after treatment
Procedure, shortened: as §1

[21] = system: POLCO; assay: as above; type: in vivo, Polygonum convolvulus; details: visual rating about 3 weeks after treatment
Procedure, shortened: as §1

[22] = system: MATIN; assay: as above; type: in vivo, Matricaria inodora; details: visual rating about 3 weeks after treatment
Procedure, shortened: as §1

Compound	Post-emergence action against LOLRI in % ([1]; Dosage 320 g/ha)	Post-emergence action against VERPE in % ([2]; dosage 80 g/ha)	Post-emergence action against VERPE in % ([2]; dosage 320 g/ha)	Pre-emergence action against AMARE in % [3]	Pre-emergence action against POLCO in % [4]	Post-emergence action against ALOMY in % [5]	Pre-emergence action against SETVI in % [6]	Pre-emergence action against AVEFA in % [7]	Post-emergence action against AMARE in % ([8]; dosage 80 g/ha)	Post-emergence action against AMARE in % ([8]; dosage 320 g/ha)	Pre-emergence action against PHBPU in % [10]	Post-emergence action against ABUTH in % ([11]; dosage 320 g/ha)	Pre-emergence action against MATIN in % [12]	Pre-emergence action against LOLRI in % [13]	Pre-emergence action against ABUTH in % [14]	Post-emergence action against AVEFA in % ([15]; Dosage 320 g/ha)	Post-emergence action against ECHCG in % ([16]; Dosage 80 g/ha)	Post-emergence action against ECHCG in % ([16]; Dosage 320 g/ha)	Pre-emergence action against ALOMY in % [17]	Pre-emergence action against VERPE in % [18]	other results
O=C(O)COc1nn(-c2cnccn2)c(-c2cncc(F)c2)c1Cl [Example I-92]	90%	80%	90%	100%	90%	80%	100%	100%	80%	90%	90%	90%	100%	100%	90%	90%	90%	90%	90%	100%	Pre-emergence action against ECHCG in % [9]: 90%; Post-emergence action against AVEFA in % ([15]; Dosage 80 g/ha): 90%; Post-emergence action against SETVI in % ([19]; Dosage 80 g/ha): 80%; Post-emergence action against SETVI in % ([19]; Dosage 320 g/ha): 80%; Post-emergence action against PHBPU in % ([20]; dosage 80 g/ha): 80%; Post-emergence action against PHBPU in % ([20]; dosage 320 g/ha): 90%
C[C@@H](Oc1nn(-c2cnccn2)c(-c2cncc(F)c2)c1Cl)C(=O)O [Example I-97]	100%	90%	90%	100%	90%	90%	100%	90%	90%	90%	100%	90%	100%	100%	90%	100%	90%	90%	100%	100%	Post-emergence action against LOLRI in % ([1]; Dosage 80 g/ha): 90%; Post-emergence action against ABUTH in % ([11]; dosage 80 g/ha): 90%; Post-emergence action against POLCO in % ([21]; dosage 80 g/ha): 90%; Post-emergence action against POLCO in % ([21]; dosage 320 g/ha): 90%; Post-emergence action against MATIN in % ([22]; dosage 80 g/ha): 90%; Post-emergence action against MATIN in % ([22]; dosage 320 g/ha): 90%; Post-emergence action against SETVI in % ([19]; Dosage 80 g/ha): 90%; Post-emergence action against SETVI in % ([19]; Dosage 320 g/ha): 90%; Post-emergence action against PHBPU in % ([20]; dosage 80 g/ha): 90%; Post-emergence action against PHBPU in % ([20]; dosage 320 g/ha): 100%
